Laboratory results reported in ChEMBL document CHEMBL1201861, “Genomics of Drug Sensitity in Cancer screening data, Wellcome Trust Sanger Institute”.
Values joined by “and” are separate entries in the source; they are usually repeats but may differ in a detail not shown here. Identical values can stand only once.

Experiments:
Test in all cases: cells
D-392MG = assay type: functional, cell-based, Homo sapiens
DK-MG = assay type: functional, cell-based, Homo sapiens;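 also: growth inhibition of DK-MG cells, read out with a cell viability assay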
Description: SANGER: Inhibition of human DK-MG cell growth in a cell viability assay.

EC-GI-10 = assay type: functional, cell-based, Homo sapiens
Description: SANGER: Inhibition of human EC-GI-10 cell growth in a cell viability assay.

EKVX = assay type: functional, cell-based, Homo sapiens;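 also: growth inhibition of human EKVX cells, read out with a cell viability assay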
Description: SANGER: Inhibition of human EKVX cell growth in a cell viability assay.

ES1 = assay type: functional, cell-based, Homo sapiens;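 also: growth inhibition of ES1 cells, read out with a cell viability assay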
Description: SANGER: Inhibition of human ES1 cell growth in a cell viability assay.

GCIY = assay type: functional, cell-based, Homo sapiens;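 also: growth inhibition of the human GCIY cell line, read out by a cell viability assay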
Description: SANGER: Inhibition of human GCIY cell growth in a cell viability assay.

GCT = assay type: functional, cell-based, Homo sapiens;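 also: GCT cell line proliferation inhibition, read out with a cell viability assay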
Description: SANGER: Inhibition of human GCT cell growth in a cell viability assay.

HCC1187 = assay type: functional, cell-based, Homo sapiens;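 also: growth inhibition of HCC1187 cells, read out with a cell viability assay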
Description: SANGER: Inhibition of human HCC1187 cell growth in a cell viability assay.

HN = assay type: functional, cell-based, Homo sapiens
Description: SANGER: Inhibition of human HN cell growth in a cell viability assay.

HSC-3 = assay type: functional, cell-based, Homo sapiens
Description: SANGER: Inhibition of human HSC-3 cell growth in a cell viability assay.

HT1197 = assay type: functional, cell-based, Homo sapiens, HT-1197
Description: SANGER: Inhibition of human HT-1197 cell growth in a cell viability assay.

HT-3 = assay type: functional, cell-based, Homo sapiens;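 also: growth inhibition measured with a cell viability readout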
Description: SANGER: Inhibition of human HT-3 cell growth in a cell viability assay.

HuTu80 = assay type: functional, cell-based, Homo sapiens, HUTU-80;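 also: growth inhibition of HuTu80 human cells, determined with a cell viability readout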
Description: SANGER: Inhibition of human HUTU-80 cell growth in a cell viability assay.

KM12 = assay type: functional, cell-based, Homo sapiens;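 also: KM12 cell growth inhibition, read out with a cell viability assay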
Description: SANGER: Inhibition of human KM12 cell growth in a cell viability assay.

KYSE-180 = assay type: functional, cell-based, Homo sapiens;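 also: growth inhibition of KYSE-180 cells, read out with a cell viability assay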
Description: SANGER: Inhibition of human KYSE-180 cell growth in a cell viability assay.

KYSE-520 cell line = assay type: functional, cell-based, Homo sapiens;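 also: growth inhibition of human KYSE-520 cells, read out with a viability assay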
Description: SANGER: Inhibition of human KYSE-520 cell growth in a cell viability assay.

L-428 = assay type: functional, cell-based; details: Homo sapiens
Description: SANGER: Inhibition of human L-428 cell growth in a cell viability assay.

LAN-6 = assay type: functional, cell-based, Homo sapiens;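 also: growth inhibition of LAN-6 cells, determined with a cell viability assay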
Description: SANGER: Inhibition of human LAN-6 cell growth in a cell viability assay.

LB1047-RCC = assay type: functional, cell-based, Homo sapiens;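 also: inhibition of cell growth, determined with a cell viability assay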
Description: SANGER: Inhibition of human LB1047-RCC cell growth in a cell viability assay.

LU-99A = assay type: functional, cell-based, Homo sapiens;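 also: growth inhibition of LU-99A cells, read out with a cell viability assay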
Description: SANGER: Inhibition of human LU-99A cell growth in a cell viability assay.

ME-180 = assay type: functional, cell-based; details: Homo sapiens;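 also: cell viability assay measuring growth inhibition of ME-180 cells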
Description: SANGER: Inhibition of human ME-180 cell growth in a cell viability assay.

MEG-01 = assay type: functional, cell-based; details: Homo sapiens;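 also: growth inhibition of MEG-01 cells, read out by a cell viability assay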
Description: SANGER: Inhibition of human MEG-01 cell growth in a cell viability assay.

MOLT-16 = assay type: functional, cell-based; details: Homo sapiens;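 also: growth inhibition of human MOLT-16 cells, read out with a cell viability assay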
Description: SANGER: Inhibition of human MOLT-16 cell growth in a cell viability assay.

NCI-H1770 = assay type: functional, cell-based; details: Homo sapiens;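 also: growth inhibition of NCI-H1770 cells determined with a viability readout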
Description: SANGER: Inhibition of human NCI-H1770 cell growth in a cell viability assay.

NCI-H1838 = assay type: functional, cell-based, Homo sapiens;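 also: growth inhibition of NCI-H1838 cells, determined with a cell viability readout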
Description: SANGER: Inhibition of human NCI-H1838 cell growth in a cell viability assay.

NCI-H2052 = assay type: functional, cell-based, Homo sapiens;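 also: growth inhibition of NCI-H2052 cells, read out with a cell viability assay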
Description: SANGER: Inhibition of human NCI-H2052 cell growth in a cell viability assay.

NCI-H226 = assay type: functional, cell-based, Homo sapiens;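 also: cell viability read-out used to gauge growth inhibition of the cells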
Description: SANGER: Inhibition of human NCI-H226 cell growth in a cell viability assay.

NCI-H520 = assay type: functional, cell-based, Homo sapiens;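 also: growth inhibition of NCI-H520 cells, measured by a cell viability assay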
Description: SANGER: Inhibition of human NCI-H520 cell growth in a cell viability assay.

NCI-H526 = assay type: functional, cell-based; details: Homo sapiens;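 also: growth inhibition of the human NCI-H526 cell line, measured by a cell viability assay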
Description: SANGER: Inhibition of human NCI-H526 cell growth in a cell viability assay.

NCI-H82 = assay type: functional, cell-based; details: Homo sapiens;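 also: growth inhibition of NCI-H82 cells, measured with a cell viability readout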
Description: SANGER: Inhibition of human NCI-H82 cell growth in a cell viability assay.

OAW-28 = assay type: functional, cell-based, Homo sapiens;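 also: growth inhibition of OAW-28 cells, read out with a cell viability assay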
Description: SANGER: Inhibition of human OAW-28 cell growth in a cell viability assay.

OE19 = assay type: functional, cell-based, Homo sapiens;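 also: growth inhibition of OE19 cells, measured through a cell viability read-out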
Description: SANGER: Inhibition of human OE19 cell growth in a cell viability assay.

Panc1005 = assay type: functional, cell-based, Homo sapiens;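 also: growth inhibition of human PANC-10-05 cells, measured by a cell viability assay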
Description: SANGER: Inhibition of human PANC-10-05 cell growth in a cell viability assay.

RERF-LC-MS = assay type: functional, cell-based, Homo sapiens;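 also: growth inhibition of human RERF-LC-MS cells, read out by a cell viability assay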
Description: SANGER: Inhibition of human RERF-LC-MS cell growth in a cell viability assay.

SF-295 = assay type: functional, cell-based, Homo sapiens; details: read-out: IC50;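 also: growth inhibition of SF-295 cells, read out with a cell viability assay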
Description: SANGER: Inhibition of human SF295 cell growth in a cell viability assay.

SK-MEL3 = assay type: functional, cell-based, Homo sapiens, SK-MEL-3;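 also: growth inhibition of human SK-MEL-3 cells, read out with a cell viability assay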
Description: SANGER: Inhibition of human SK-MEL-3 cell growth in a cell viability assay.

SK-N-FI = assay type: functional, cell-based, Homo sapiens;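 also: cell viability assay measuring growth inhibition of human SK-N-FI cells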
Description: SANGER: Inhibition of human SK-N-FI cell growth in a cell viability assay.

SNB-75 = assay type: functional, cell-based, Homo sapiens;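 also: cell viability assay measuring growth inhibition of human SNB-75 cells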
Description: SANGER: Inhibition of human SNB75 cell growth in a cell viability assay.

SW-620 = assay type: functional, cell-based, Homo sapiens;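 also: growth inhibition of human SW-620 cells, measured by a cell viability assay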
Description: SANGER: Inhibition of human SW620 cell growth in a cell viability assay.

SW948 = assay type: functional, cell-based, Homo sapiens;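 also: growth inhibition of SW948 cells, read out with a cell viability assay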
Description: SANGER: Inhibition of human SW948 cell growth in a cell viability assay.

T84 = assay type: functional, cell-based, Homo sapiens;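 also: growth inhibition measured with a cell viability readout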
Description: SANGER: Inhibition of human T84 cell growth in a cell viability assay.

639-V = assay type: functional, cell-based, Homo sapiens;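 also: growth inhibition of 639-V cells, read out with a cell viability assay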
Description: SANGER: Inhibition of human 639-V cell growth in a cell viability assay.

A388 = assay type: functional, cell-based, Homo sapiens;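 also: growth inhibition of human A388 cells, read out with a cell viability assay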
Description: SANGER: Inhibition of human A388 cell growth in a cell viability assay.

A-431 = assay type: functional, cell-based, Homo sapiens;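 also: growth inhibition of A-431 cells, determined with a cell viability read-out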
Description: SANGER: Inhibition of human A431 cell growth in a cell viability assay.

A673 = assay type: functional, cell-based, Homo sapiens;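 also: growth inhibition of human A673 cells, read out through a cell viability assay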
Description: SANGER: Inhibition of human A673 cell growth in a cell viability assay.

BPH-1 = assay type: functional, cell-based, Homo sapiens;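 also: cell viability assay measuring growth inhibition of human BPH-1 cells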
Description: SANGER: Inhibition of human BPH-1 cell growth in a cell viability assay.

C8166 = assay type: functional, cell-based; details: Homo sapiens;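 also: growth inhibition of human C8166 cells measured by a cell viability assay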
Description: SANGER: Inhibition of human C8166 cell growth in a cell viability assay.

U-118-MG = assay type: functional, cell-based, Homo sapiens
Description: SANGER: Inhibition of human U-118-MG cell growth in a cell viability assay.

U-87 MG = assay type: functional, cell-based, U-87MG ATCC; details: Homo sapiens;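 also: growth inhibition of the cells measured with a viability assay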
Description: SANGER: Inhibition of human U-87-MG cell growth in a cell viability assay.

UACC-893 = assay type: functional, cell-based, Homo sapiens
Description: SANGER: Inhibition of human UACC-893 cell growth in a cell viability assay.

CAMA-1 = assay type: functional, cell-based, Homo sapiens;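 also: growth inhibition of CAMA-1 cells, read out with a cell viability assay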
Description: SANGER: Inhibition of human CAMA-1 cell growth in a cell viability assay.

Cc1cc([C@@H](C)Nc2ccccc2C(=O)O)c2nc(N3CCOCC3)cc(=O)n2c1 [AZD-6482]
IC50 (D-392MG; d-392mg): > 5.12 µM
IC50 (DK-MG; dk-mg): > 5.12 µM
IC50 (EC-GI-10; ec-gi-10): > 5.12 µM
IC50 (EKVX; ekvx): > 5.12 µM
IC50 (ES1; es1): > 5.12 µM
IC50 (GCIY; gciy): > 5.12 µM and 2.2 µM
IC50 (GCT; gct): > 5.12 µM
IC50 (HCC1187; Homo sapiens, HCC1187): > 5.12 µM
IC50 (HCC1187; hcc1187): > 5.12 µM
IC50 (HN; hn): > 5.12 µM
IC50 (HSC-3; hsc-3): > 5.12 µM
IC50 (HT1197; ht-1197): > 5.12 µM
IC50 (HT-3; ht-3): > 5.12 µM
IC50 (HuTu80; Homo sapiens, HuTu80): > 5.12 µM
IC50 (HuTu80; hutu-80): > 5.12 µM
IC50 (KM12; Homo sapiens, KM12): > 5.12 µM
IC50 (KM12; km12): > 5.12 µM
IC50 (KYSE-180; kyse-180): > 5.12 µM
IC50 (KYSE-520 cell line; Homo sapiens, KYSE-520): > 5.12 µM
IC50 (KYSE-520 cell line; kyse-520): > 5.12 µM
IC50 (L-428): > 5.12 µM
IC50 (LAN-6; lan-6): > 5.12 µM
IC50 (LB1047-RCC; Homo sapiens, LB1047-RCC): > 5.12 µM
IC50 (LB1047-RCC; lb1047-rcc): > 5.12 µM
IC50 (LU-99A; lu-99a): > 5.12 µM
IC50 (ME-180): > 5.12 µM
IC50 (MEG-01): > 5.12 µM
IC50 (MOLT-16): 4.33 µM
IC50 (NCI-H1770): > 5.12 µM
IC50 (NCI-H1838; nci-h1838): > 5.12 µM
IC50 (NCI-H2052; nci-h2052): > 5.12 µM and 0.915 µM
IC50 (NCI-H226; Homo sapiens, NCI-H226): > 5.12 µM
IC50 (NCI-H226; nci-h226): > 5.12 µM
IC50 (NCI-H520; Homo sapiens, NCI-H520): 4.21 µM
IC50 (NCI-H520; nci-h520): > 5.12 µM
IC50 (NCI-H526): > 5.12 µM
IC50 (NCI-H82): > 5.12 µM
IC50 (OAW-28; Homo sapiens, OAW-28): > 5.12 µM
IC50 (OAW-28; oaw-28): > 5.12 µM
IC50 (OE19; oe19): > 5.12 µM
IC50 (Panc1005; panc1005): 2.1 µM and > 5.12 µM
IC50 (RERF-LC-MS; rerf-lc-ms): > 5.12 µM and 4.34 µM
IC50 (SF-295; sf-295): 2.77 µM and > 5.12 µM
IC50 (SK-MEL3; Homo sapiens, SK-MEL3): > 5.12 µM
IC50 (SK-MEL3; sk-mel-3): > 5.12 µM
IC50 (SK-N-FI; sk-n-fi): > 5.12 µM
IC50 (SNB-75; Homo sapiens, SNB-75): 1.67 µM
IC50 (SNB-75; snb-75): 3.15 µM
IC50 (SW-620; sw-620): > 5.12 µM
IC50 (SW948; sw948): > 5.12 µM
IC50 (T84; t84): > 5.12 µM
IC50 (639-V; 639-v): 1.63 µM and 4.78 µM
IC50 (A388; a388): > 5.12 µM
IC50 (A-431; a-431): > 5.12 µM
IC50 (A673; Homo sapiens, A673): > 5.12 µM
IC50 (A673; a673): > 5.12 µM
IC50 (BPH-1; Homo sapiens, BPH-1): 4.9 µM
IC50 (BPH-1; bph-1): 4.3 µM
IC50 (C8166): > 5.12 µM
IC50 (U-118-MG; u-118-mg): > 5.12 µM and 3.26 µM
IC50 (U-87 MG): > 5.12 µM
IC50 (UACC-893; uacc-893): 3.98 µM and 1.51 µM
IC50 (CAMA-1; cama-1): 1.2 µM and > 5.12 µM

O=C(NOCC1CC1)c1ccc(F)c(F)c1Nc1ccc(I)cc1Cl [CI-1040]
IC50 (D-392MG; Homo sapiens, D-392MG): > 10 µM
IC50 (DK-MG; Homo sapiens, DK-MG): 9.21 µM
IC50 (EC-GI-10; Homo sapiens, EC-GI-10): > 10 µM
IC50 (EKVX; Homo sapiens, EKVX): > 10 µM
IC50 (ES1; Homo sapiens, ES1): > 10 µM
IC50 (GCIY; Homo sapiens, GCIY): > 10 µM
IC50 (GCT; Homo sapiens, GCT): > 10 µM
IC50 (HCC1187; Homo sapiens, HCC1187): > 10 µM
IC50 (HN; Homo sapiens, HN): 2.16 µM
IC50 (HSC-3; Homo sapiens, HSC-3): 3.23 µM
IC50 (HT1197; Homo sapiens, HT1197): > 10 µM
IC50 (HT-3; Homo sapiens, HT-3): > 10 µM
IC50 (HuTu80; Homo sapiens, HuTu80): > 10 µM
IC50 (KM12; Homo sapiens, KM12): 0.241 µM
IC50 (KYSE-180; Homo sapiens, KYSE-180): > 10 µM
IC50 (KYSE-520 cell line; Homo sapiens, KYSE-520): > 10 µM
IC50 (L-428): > 10 µM
IC50 (LAN-6; Homo sapiens, LAN-6): 4.32 µM
IC50 (LB1047-RCC; Homo sapiens, LB1047-RCC): 4.74 µM
IC50 (LU-99A; Homo sapiens, LU-99A): 5.66 µM
IC50 (ME-180): 5.58 µM
IC50 (MEG-01): 9.25 µM
IC50 (MOLT-16): > 10 µM
IC50 (NCI-H1770): > 10 µM
IC50 (NCI-H1838; Homo sapiens, NCI-H1838): > 10 µM
IC50 (NCI-H2052; Homo sapiens, NCI-H2052): > 10 µM
IC50 (NCI-H226; Homo sapiens, NCI-H226): > 10 µM
IC50 (NCI-H520; Homo sapiens, NCI-H520): > 10 µM
IC50 (NCI-H526): > 10 µM
IC50 (NCI-H82): > 10 µM
IC50 (OAW-28; Homo sapiens, OAW-28): > 10 µM
IC50 (OE19; Homo sapiens, OE19): > 10 µM
IC50 (Panc1005; Homo sapiens, Panc1005): 6.28 µM
IC50 (RERF-LC-MS; Homo sapiens, RERF-LC-MS): 5.69 µM
IC50 (SF-295; Homo sapiens, SF-295): > 10 µM
IC50 (SK-MEL3; Homo sapiens, SK-MEL3): 3.85 µM
IC50 (SK-N-FI; Homo sapiens, SK-N-FI): 8.81 µM
IC50 (SNB-75; Homo sapiens, SNB-75): > 10 µM
IC50 (SW-620; Homo sapiens, SW-620): 1.14 µM
IC50 (SW948; Homo sapiens, SW948): > 10 µM
IC50 (T84; Homo sapiens, T84): > 10 µM
IC50 (639-V; Homo sapiens, 639-V): 9.64 µM
IC50 (A388; Homo sapiens, A388): > 10 µM
IC50 (A-431; Homo sapiens, A-431): 6.24 µM
IC50 (A673; Homo sapiens, A673): 8.63 µM
IC50 (BPH-1; Homo sapiens, BPH-1): 1.9 µM
IC50 (C8166): > 10 µM
IC50 (U-118-MG; Homo sapiens, U-118-MG): > 10 µM
IC50 (U-87 MG): > 10 µM
IC50 (UACC-893; Homo sapiens, UACC-893): > 10 µM
IC50 (CAMA-1; Homo sapiens, CAMA-1): > 10 µM
